Here are results for nine molecules from ChEMBL document CHEMBL1201862, “PubChem BioAssay data set” (2004).

Some test systems named below: SK-MEL-28; COLO 205; SF-268; T47D; NCI-H226; RPMI-8226; SR; SW-620; UO-31; MOLT-4; HCC 2998; NCI-H522; MDA-N; DU-145; SNB-75; NCI/ADR-RES; SF-295; UACC-62; SNB-19; HCT-116.
Holding throughout (assay): NCI anticancer screen, dose series, 48 h

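Five compound concentrations were applied to cells in 96-well plates for 48 hours; endpoints were derived by simple linear interpolation of the resulting dose-response curve. GI50 marks 50% less growth.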 The source made the active and inactive calls. No stated cut-off is given here; in the data, active = GI50 up to about 1.1 µM and inactive = higher. Positions of bridges follow the written chain, without caps; N, C: chain ends. Non-standard residues stand in square brackets, D forms with d. Residues, ends and D or L forms follow the SMILES beside them. *: point of attachment. Cbz = O=C(OCc1ccccc1)*; Aib = CC(C)(N)C(=O)O; OBn = c1ccc(CO*)cc1; βAla = NCCC(=O)O

Take `Cc1ncc([N+](=O)[O-])n1CCNC(=O)CCn1ccnc1[N+](=O)[O-]`: the GI50 in the test with SK-MEL-28, in the test on COLO 205, in the test with SF-268, in the test with T47D, in the test with NCI-H226 and in the test on RPMI-8226 was > 100 µM (inactive) each time. Further, the GI50 in the test on SR, in the test on SW-620, with UO-31, with MOLT-4, in the test on HCC 2998 and with NCI-H522 was > 100 µM (inactive) in each case. Besides, the GI50 with MDA-N, in the test with DU-145, in the test with SNB-75, with NCI/ADR-RES, in the test on SF-295 and in the test on UACC-62 was > 100 µM (inactive) in each case. The GI50 with SNB-19 and with HCT-116 was > 100 µM (inactive) throughout.
With `CC(C)CC(=O)OC[n+]1cccc(-c2c(COC(=O)NC(C)C)c(COC(=O)NC(C)C)c3n2CCC3)c1`, the GI50 was > 100 µM (inactive) in the test on SK-MEL-28; 70.3 µM (inactive) with COLO 205; 29 µM (inactive) with SF-268; 51.3 µM (inactive) in the test on T47D; > 100 µM (inactive) in the test on NCI-H226; 15.2 µM (inactive) with RPMI-8226. Further, the GI50 in the test on SR is > 100 µM (inactive); with SW-620 it was 51.1 µM (inactive); with UO-31, 31.3 µM (inactive); in the test with MOLT-4, 38 µM (inactive); with HCC 2998, > 100 µM (inactive); with NCI-H522, 23.7 µM (inactive). Further, the GI50 in the test with MDA-N was > 100 µM (inactive); in the test with DU-145 it was 24.7 µM (inactive); in the test with SNB-75, 39.8 µM (inactive); in the test on NCI/ADR-RES, 35.2 µM (inactive); in the test on SF-295 it was 39 µM (inactive); in the test on UACC-62 it was 25.6 µM (inactive). Besides, the GI50 with SNB-19 was > 100 µM (inactive); in the test on HCT-116 it was 44 µM (inactive).
With `COc1ccc(/C(CC2OC(=O)c3ccccc32)=N\NC(N)=O)cc1` (stereo not given), the GI50 with SK-MEL-28, in the test on COLO 205, in the test with SF-268, in the test on T47D, with NCI-H226 and in the test on RPMI-8226 was > 100 µM (inactive) in each case. Also, the GI50 in the test with SR, in the test on SW-620, in the test on UO-31, in the test on MOLT-4, in the test with HCC 2998 and with NCI-H522 was > 100 µM (inactive) throughout. The GI50 in the test on MDA-N, with DU-145, in the test on SNB-75, in the test with NCI/ADR-RES, in the test with SF-295 and with UACC-62 was > 100 µM (inactive) each time. Also, the GI50 in the test on SNB-19 and in the test on HCT-116 was > 100 µM (inactive) each time.
For the molecule `CSC(=N/N=C(\C)c1ccc(S(=O)(=O)N(C)c2ccccc2)cc1)SC`, the GI50 in the test on SK-MEL-28 was > 67.9 µM (inactive); with COLO 205, > 67.1 µM (inactive); with SF-268, > 66.5 µM (inactive); in the test with T47D it was > 60.7 µM (inactive); with NCI-H226, > 100 µM (inactive); with RPMI-8226, 13.1 µM (inactive). Further, the GI50 with SR was > 59.6 µM (inactive); in the test with SW-620, > 66.4 µM (inactive); in the test on UO-31, > 61.5 µM (inactive); in the test with MOLT-4 it was 17.2 µM (inactive); in the test with HCC 2998, > 100 µM (inactive); in the test with NCI-H522 it was > 100 µM (inactive). In addition, the GI50 is > 66.2 µM (inactive) in the test on MDA-N; > 66.4 µM (inactive) with DU-145; > 63.1 µM (inactive) with SNB-75; > 100 µM (inactive) in the test on NCI/ADR-RES; > 64.7 µM (inactive) with SF-295; > 65.8 µM (inactive) with UACC-62. Besides, the GI50 is > 66.2 µM (inactive) with SNB-19 and > 64.7 µM (inactive) in the test with HCT-116.
Take `CC(=O)N(O)c1ccc(-c2nc3ccccc3s2)cc1`: the GI50 is 80.7 µM (inactive) in the test with SK-MEL-28; > 100 µM (inactive) in the test on COLO 205; 74.6 µM (inactive) with SF-268; 32.9 µM (inactive) in the test on T47D; 24.2 µM (inactive) with NCI-H226; 15 µM (inactive) with RPMI-8226. In addition, the GI50 was > 100 µM (inactive) in the test with SR; > 100 µM (inactive) in the test on SW-620; 46 µM (inactive) with UO-31; 48.6 µM (inactive) in the test on MOLT-4; 61.9 µM (inactive) in the test with HCC 2998; 24.5 µM (inactive) with NCI-H522. The GI50 is 77.6 µM (inactive) with MDA-N; > 100 µM (inactive) in the test with DU-145; 33 µM (inactive) in the test on SNB-75; 28.4 µM (inactive) with NCI/ADR-RES; 45.2 µM (inactive) with SF-295; > 100 µM (inactive) in the test with UACC-62. Further, the GI50 was 60 µM (inactive) in the test on SNB-19 and 68.5 µM (inactive) in the test with HCT-116.
With `CN/N=C(/C=C/c1ccccc1)C(C)C`, the GI50 with SK-MEL-28 is > 100 µM (inactive); with COLO 205 it was > 100 µM (inactive); in the test on SF-268, > 100 µM (inactive); with T47D, 86.3 µM (inactive); in the test with NCI-H226 it was > 100 µM (inactive); in the test on RPMI-8226, > 100 µM (inactive). Moreover, the GI50 was > 100 µM (inactive) with SR; > 100 µM (inactive) in the test with SW-620; > 100 µM (inactive) in the test with UO-31; > 100 µM (inactive) in the test on MOLT-4; > 100 µM (inactive) with HCC 2998; 73.3 µM (inactive) in the test with NCI-H522. Further, the GI50 in the test on MDA-N, in the test with DU-145, in the test on SNB-75, in the test on NCI/ADR-RES, with SF-295 and in the test with UACC-62 was > 100 µM (inactive) throughout. The GI50 with SNB-19 and in the test on HCT-116 was > 100 µM (inactive) in each case.
With `CC(C)(C)OC(=O)N(O)[C@@H]1CC[C@H](n2cnc3c(N)ncnc32)C1`, the GI50 in the test with SK-MEL-28, in the test on COLO 205, with SF-268, in the test on T47D, in the test on NCI-H226 and in the test with RPMI-8226 was > 100 µM (inactive) in each case. Also, the GI50 was > 100 µM (inactive) with SR; > 100 µM (inactive) in the test on SW-620; 96.8 µM (inactive) in the test on UO-31; > 100 µM (inactive) in the test with MOLT-4; > 100 µM (inactive) with HCC 2998; > 100 µM (inactive) with NCI-H522. The GI50 in the test on MDA-N, in the test on DU-145, in the test on SNB-75, in the test with NCI/ADR-RES, in the test on SF-295 and with UACC-62 was > 100 µM (inactive) throughout. Besides, the GI50 in the test on SNB-19 and with HCT-116 was > 100 µM (inactive) in each case.
With `CC(C)NC(=O)OCc1c(COC(=O)NC(C)C)n(C)c2c1ccc1ccccc12`, the GI50 with SK-MEL-28 was 1.99 µM (inactive); in the test with COLO 205 it was 1.84 µM (inactive); with SF-268, 1.9 µM (inactive); in the test with T47D, 0.247 µM (active); in the test on NCI-H226, 1.82 µM (inactive); in the test with RPMI-8226 it was 1.19 µM (inactive). The GI50 was 0.57 µM (active) in the test with SR; 1.37 µM (inactive) in the test with SW-620; 1.9 µM (inactive) with UO-31; 1.15 µM (inactive) in the test with MOLT-4; 2.88 µM (inactive) in the test on HCC 2998; 0.0417 µM (active) in the test on NCI-H522. Moreover, the GI50 is 1.74 µM (inactive) with MDA-N; 3.1 µM (inactive) in the test on DU-145; 1.83 µM (inactive) with SNB-75; 2.29 µM (inactive) in the test on NCI/ADR-RES; 4.56 µM (inactive) in the test on SF-295; 1.44 µM (inactive) in the test with UACC-62. In addition, the GI50 in the test on SNB-19 is 1.74 µM (inactive); in the test on HCT-116 it was 1.45 µM (inactive).
On to `CC1(C)NC(=O)C(NC(=O)C(CC(=O)OCc2ccccc2)NC(=O)OCc2ccccc2)CCCCNC(=O)CCNC1=O` (stereo not given) (Cbz-D(OBn)K[Aib][βAla]; lactam 2-C; configuration not given here), for which the GI50 with SK-MEL-28, in the test on COLO 205, with SF-268, with T47D, in the test on NCI-H226 and in the test with RPMI-8226 was > 100 µM (inactive) throughout. Besides, the GI50 with SR is > 10 µM (inactive); in the test on SW-620, > 100 µM (inactive); in the test on UO-31 it was > 100 µM (inactive); in the test with MOLT-4 it was > 100 µM (inactive); in the test on HCC 2998, > 100 µM (inactive); in the test on NCI-H522, > 100 µM (inactive). In addition, the GI50 in the test on MDA-N, in the test on DU-145, in the test with SNB-75, in the test on NCI/ADR-RES, in the test on SF-295 and in the test with UACC-62 was > 100 µM (inactive) in each case. Besides, the GI50 in the test on SNB-19 and in the test on HCT-116 was > 100 µM (inactive) each time.
